{"source": "patent US20110190249A1", "about": "“THERAPEUTIC METHODS AND USES OF SAPOGENINS AND THEIR DERIVATIVES” (PHYTOPHARM PLC, priority 2002, published 2011)", "key": {"[1]": {"tested_on": "dopamine (D) 2 receptor", "experiment": "Dopamine D2 receptor density in aged rats", "assay_type": "in vivo, rat", "settings": "aged rats treated 3 months; aged untreated 153.8±40.5, young 200.6±50.9", "procedure": "(§1) Aged Sprague-Dawley rats aged were divided into different groups, one control and groups treated for 2-3 months with either sarsasapogenin, episarsasapogenin cathylate or smilagenin (18 mg kg^−1 day^−1, n=10). A control group (n=14) of untreated young rats was also included in the study. The daily dose of drug was mixed in a minimum amount of food and was administered every morning separately to each rat.\nBy contrast, smilagenin and sarsasapogenin treatment in aged rats for 3 months restored the D1 and D2 receptor density (smilagenin 177±10.9; 217±45.7 fmol/mg protein; sarsasapogenin 172.0±44.0; 206.4±60.5 respectively)."}, "[2]": {"tested_on": "BDNF", "experiment": "BDNF levels in aged rats", "assay_type": "in vivo, rat", "settings": "aged rats treated 3 months; aged untreated 1.205±0.219, young 1.647±0.277", "procedure": "as §1"}, "[3]": {"tested_on": "caspase-3", "experiment": "Glutamate induced caspase 3 activity in cortical neurones", "assay_type": "cell-based, rat", "settings": "300 nM for 6 h after glutamate 100 microM 10 min; glutamate alone 131", "procedure": "The objective of this study was to examine the anti-apoptotic effect of smilagenin on the caspase-3 activity, a marker of apoptosis, in rat primary cortical cultures exposed to glutamate\nRat cortical neurones were cultured for 6 days. At day 6, glutamate (100 microM, 10 min) was added. Then the cultures were washed and medium was replaced with fresh medium containing smilagenin or vehicle control (DMSO, 0.25%) for 6 h. After 6 h treatment, apoptosis was evaluated by measuring caspase 3, activity. Caspase 3 activity was detected by the cleavage of p-nitroaniline from a colorimetric caspase-3 substrate, acetyl-Asp-Glu-Val-Asp p-nitroanilide. […] has a high absorbance at 405 nm. Relative caspase-3 activity was measured as optical density. In addition the relative activity of caspase-3 was standardised to protein concentration of the sample, which was also measured as an optical density (Du et al, J Neurochem., 69, 1382-1388, 1997; Sawada et al, Faseb J., 14, 1202-1214, 2000)."}, "[4]": {"tested_on": "rat mesencephalic dopaminergic neurones", "experiment": "Pre-treatment of dopaminergic neurones before MPP+ exposure (neuronal survival)", "assay_type": "cell-based", "settings": "pre-treatment 30 nM; MPP+ 2 μM; MPP+ alone 55 ± 3", "from_the_text": "Smilagenin and sarsasapogenin prevent the neurodegeneration caused by exposure to the neurotoxin, 1-methyl-4-phenylpyridinium (MPP^+) in rat mesencephalic dopaminergic neurones; a model of Parkinson's disease in vitro.\nGlial cell line-derived neurotrophic factor (GDNF) and brain-derived neurotrophic factor (BDNF), molecules that are involved in neuronal growth, were used as positive controls."}, "[5]": {"tested_on": "rat primary cortical neurones", "experiment": "Neurite outgrowth in rat primary cortical neurones", "assay_type": "cell-based", "settings": "for Number of neurones displaying neurites, Mean ± s.e.m (%): control 47 ± 2; for Neurite length measured using optical micrometry, Mean ± s.e.m (%): control 100 ± 4", "from_the_text": "Neurodegenerative disorders are characterised by a progressive loss of neurones and degradation of neuronal processes (neurites). Agents that induce neurite outgrowth may promote the formation of new connections between neurones and ameliorate the symptoms of neurodegenerative conditions (Katzman et al, Faseb J., 5, 278-286, 1991)."}, "[6]": {"tested_on": "muscarinic acetylcholine receptor", "experiment": "Brain muscarinic acetylcholine receptor density in aged rats (dual-site competitive ligand binding)", "assay_type": "in vivo, rat", "settings": "18 mg kg−1 day−1 oral, 2-3 months", "procedure": "as §1\nMuscarinic acetylcholine receptor density in the brain was measured. Tissue was prepared as follows: brains were removed quickly after decapitation, frozen in dry ice, and transferred to a freezer. The brains were homogenised and the pellet was finally suspended in buffer.\nThe dual-site competitive ligand binding assay was used to measure muscarinic acetylcholine receptor density."}, "[7]": {"tested_on": "aged Sprague-Dawley rats", "experiment": "Y-maze learning and memory test in aged rats", "assay_type": "in vivo, rat", "settings": "18 mg kg−1 day−1 oral in food, 3 months", "procedure": "as §1\nA Y-maze apparatus was used for the learning and memory test. On the floor of each arm of the Y-maze is an array of copper rods to which electric current is applied whenever needed, with adjustable voltage. Each arm is 45 cm long and has a 15 W lamp at the end, which is turned on when needed. After 3 months drug administration, each rat was trained for 7 consecutive days, as follows. For each training session, the rat was put into one arm of the Y-maze, after two minutes rest, an electrical current was applied to the copper rods and the lamp of the clockwise arm was illuminated to indicate the non-stimulation area. If the rat went into that arm, one correct response was recorded, otherwise, one wrong response was recorded: This stimulation-response test was repeated 20 times each day, with a pause of 5 sec between each two consecutive tests. The number of correct responses following the twenty tests on the seventh day was used to express learning ability, (the higher the number the better the learning ability). The rats were then left resting for 30 days and the procedure was repeated once more. The number of correct responses of the 20 tests after the 30 day rest period was used to represent the memory ability"}, "[8]": {"tested_on": "rat mesencephalic dopaminergic neurones", "experiment": "Treatment of dopaminergic neurones after MPP+ exposure (survival, neurites)", "assay_type": "cell-based", "settings": "MPP+ 2 μM", "from_the_text": "Smilagenin and sarsasapogenin also reverse the neurodegeneration caused by exposure to the neurotoxin 1-methyl-4-phenylpyridinium (MPP^+) in rat mesencephalic dopaminergic neurones; a model of Parkinson's disease in vitro.\nGlial cell line-derived neurotrophic factor (GDNF) and brain-derived neurotrophic factor (BDNF), molecules that are involved in neuronal growth, and 17β-oestradiol were used as positive controls. Treatment with smilagenin and sarsasapogenin produced a significant increase in the neuronal survival compared to neurones exposed to MPP^+ alone (Table 8).\nExposure to MPP^+ caused not only a significant decrease in dopaminergic number but also in the percentage of neurites."}, "[9]": {"tested_on": "SOD-1 transgenic mice", "experiment": "Survival and behaviour of SOD-1 mice (ALS model)", "assay_type": "in vivo", "settings": "SOD mouse", "from_the_text": "Amyotrophic lateral sclerosis (ALS) is a progressive fatal neurodegenerative disorder that causes motor neurone degeneration, […], paralysis and death. The cause of this disease is heterogeneous: mutations in the Cu/Zn superoxide dismutase (SOD-1) gene is responsible for some forms of human ALS. Animal models of this disease include the SOD-1 transgenic mice over-expressing SOD-1 gene and the progressive motor neuropathy (pmn, a model of Charcot-Marie-Tooth) mice."}, "[10]": {"tested_on": "rat primary cortical neurones", "experiment": "Reversal of glutamate-induced neurodegeneration (LDH), treatment after glutamate exposure", "assay_type": "cell-based", "settings": "LDH after 24 h, control = 100", "procedure": "Neuronal cell survival was evaluated by measuring lactate dehydrogenase (LDH) activity released in the media 24 h after test compound treatment or glutamate+test compound exposure, using the CytoTox 96 non-radioactive kit and quantitated by measuring wavelength absorbance at 450 nm.\nAs above mentioned, exposure of rat primary cortical cultures to glutamate (100 μM; 10 min) caused an increase in lactate dehydrogenase (LDH) activity measured after 24 h, indicating a significant neurodegeneration."}}}
{"compound": "C[C@@H]1CC[C@@]2(OC1)O[C@H]1C[C@H]3[C@@H]4CC[C@@H]5C[C@@H](O)CC[C@]5(C)[C@H]4CC[C@]3(C)[C@H]1[C@@H]2C", "note": "[smilagenin]", "values": [{"measurement": "D2 receptor density", "setting": "[1]", "value": "217±45.7", "unit": "fmol/mg protein"}, {"measurement": "BDNF levels", "setting": "[2]", "value": "1.342±0.07", "unit": "ng/g tissue"}, {"measurement": "Caspase activity (% of control)", "setting": "[3]", "value": "105 % of control"}, {"measurement": "Dopaminergic neurones after MPP+ exposure (survival), Mean ± s.e.m (%)", "setting": "[4]", "value": "98 ± 4", "unit": "%"}, {"measurement": "Number of neurones displaying neurites, Mean ± s.e.m (%)", "setting": "[5]; 0.3 pM", "value": "63 ± 2", "unit": "%"}, {"measurement": "Neurite length measured using optical micrometry, Mean ± s.e.m (%)", "setting": "[5]; 0.3 pM", "value": "159 ± 5", "unit": "%"}, {"measurement": "Number of neurones displaying neurites, Mean ± s.e.m (%)", "setting": "[5]; 3 pM", "value": "63 ± 2", "unit": "%"}, {"measurement": "Neurite length measured using optical micrometry, Mean ± s.e.m (%)", "setting": "[5]; 3 pM", "value": "190 ± 8", "unit": "%"}, {"measurement": "Number of neurones displaying neurites, Mean ± s.e.m (%)", "setting": "[5]; 30 pM", "value": "66 ± 2", "unit": "%"}, {"measurement": "Neurite length measured using optical micrometry, Mean ± s.e.m (%)", "setting": "[5]; 30 pM", "value": "204 ± 6", "unit": "%"}, {"measurement": "Muscarinic acetylcholine receptor density in brain", "setting": "[6]", "value": "significantly restored"}, {"measurement": "Learning and memory ability (Y-maze)", "setting": "[7]", "value": "restored the learning and memory ability"}, {"measurement": "Percentage of neurites in dopaminergic neurones after MPP+ exposure, Mean ± s.e.m (%)", "setting": "[8]; 0.03 nM, control 41 ± 4, MPP+ alone 27 ± 5", "value": "41 ± 4", "unit": "%"}, {"measurement": "Dopaminergic neurones after MPP+ exposure (survival), Mean ± s.e.m (%)", "setting": "[8]; treatment 0.03 nM, MPP+ alone 76 ± 4", "value": "111 ± 6", "unit": "%"}, {"measurement": "Behavioural deficits", "setting": "[9]; oral administration", "value": "improve the behavioural deficits"}, {"measurement": "Lifespan (survival)", "setting": "[9]; oral administration (FIG. 5)", "value": "increase the lifespan"}, {"measurement": "Cortical neurones previously exposed to glutamate, Mean ± s.e.m (%)", "setting": "[10]; 3 nM after glutamate 100 μM 10 min", "value": "109 ± 6", "unit": "%"}, {"measurement": "Cortical neurones previously exposed to glutamate, Mean ± s.e.m (%)", "setting": "[10]; 30 nM after glutamate 100 μM 10 min", "value": "104 ± 1", "unit": "%"}]}
